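Briefly, cells in 96-well plates were exposed to five compound concentrations for 48 h, and endpoints were estimated by linear interpolation. At the TGI there is no net growth.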 Where a SMILES comes first, the peptide text is derived from it. [ ]: non-standard residue; d: D form. The star is where a group is joined. Phe(4-NO2) = N[CH](Cc1ccc([N+](=O)[O-])cc1)C(=O)O; Boc = CC(C)(C)OC(=O)*
Experiments:
Experiment in all cases: NCI anticancer screen, dose series, 48 h
MDA-N = system: MDA-N
RXF 393 renal = system: RXF 393 renal
SF-539 CNS = system: SF-539 CNS
SNB-75 CNS = system: SNB-75 CNS
NCI-H460 lung = system: NCI-H460 lung
UACC-257 melanoma = system: UACC-257 melanoma
OVCAR-3 ovarian = system: OVCAR-3 ovarian
IGROV1 ovarian = system: IGROV1 ovarian
EKVX NSCLC = system: EKVX NSCLC
TK-10 renal = system: TK-10 renal
K-562 leukemia = system: K-562 leukemia
CCRF-CEM leukemia = system: CCRF-CEM leukemia
COLO 205 colon = system: COLO 205 colon
RPMI-8226 leukemia = system: RPMI-8226 leukemia
ACHN renal = system: ACHN renal
SK-OV-3 ovarian = system: SK-OV-3 ovarian
SR leukemia = system: SR leukemia
DU-145 prostate = system: DU-145 prostate
NCI-H522 lung = system: NCI-H522 lung
SF-268 CNS = system: SF-268 CNS

Row | SMILES | TGI (MDA-N) [µM] | TGI (RXF 393 renal) [µM] | TGI (SF-539 CNS) [µM] | TGI (SNB-75 CNS) [µM] | TGI (NCI-H460 lung) [µM] | TGI (UACC-257 melanoma) [µM] | TGI (OVCAR-3 ovarian) [µM] | TGI (IGROV1 ovarian) [µM] | TGI (EKVX NSCLC) [µM] | TGI (TK-10 renal) [µM] | TGI (K-562 leukemia) [µM] | TGI (CCRF-CEM leukemia) [µM] | TGI (COLO 205 colon) [µM] | TGI (RPMI-8226 leukemia) [µM] | TGI (ACHN renal) [µM] | TGI (SK-OV-3 ovarian) [µM] | TGI (SR leukemia) [µM] | TGI (DU-145 prostate) [µM] | TGI (NCI-H522 lung) [µM] | TGI (SF-268 CNS) [µM]
1 | CCc1ccc(/C=C/C(=O)C2CN(CC)CCC2(O)/C=C/c2ccc(CC)cc2)cc1 (centres undefined) | 10.6 | 8.43 | 6 | 21.6 | 7.26 | 19.3 | 3.3 | 4.35 | 17.4 | 5.54 | 8.94 | 5.16 | 6.21 | 5.24 | 3.68 | 25 | 3.99 | 21.6 | 4.79 | 12
2 | COC(=O)CCC(NC(=O)OC(C)(C)C)C(=O)NC(Cc1ccc([N+](=O)[O-])cc1)C(=O)NC(CCC(=O)OC)C(=O)OC (centres undefined) (Boc-Glu(OMe)-[Phe(4-NO2)]-Glu(OMe)-OMe; configuration not given here) | > 100 | > 100 | > 100 | 80.9 | > 100 | 25.3 | > 100 | > 100 | > 100 | > 100 | > 100 | 36.8 | > 100 | 67.3 | > 100 | > 100 | 51.6 | > 100 | > 100 | > 100
3 | C=C(CO)[C@H]1Oc2ccc(C(C)=O)cc2[C@@H]1O | 56.5 | > 100 | > 100 | > 100 | > 100 | > 100 | > 100 | > 100 | > 100 | > 100 | > 100 | > 100 | > 100 | > 100 | > 100 | > 100 | > 100 | > 100 | > 100 | > 100
4 | COCOc1c(C(OCOC)c2cnc(Sc3ccccc3)n2C)ccc(OC)c1OC (centres undefined) | > 100 | > 100 | > 100 | > 100 | > 100 | > 100 | > 100 | > 100 | > 100 | > 100 | > 100 | > 100 | – | > 100 | > 100 | > 100 | > 100 | > 100 | > 100 | > 100
5 | NNc1ncc2c(n1)-c1ccccc1OC2 | > 100 | > 100 | > 100 | > 100 | > 100 | > 100 | > 100 | > 100 | > 100 | > 100 | > 100 | > 100 | > 100 | > 100 | > 100 | > 100 | > 100 | > 100 | > 100 | > 100
6 | CCCCCC(=Nc1n[nH]nc1C(N)=O)OCC | > 100 | > 100 | > 100 | > 100 | > 100 | > 100 | > 100 | > 100 | > 100 | > 100 | > 100 | > 100 | > 100 | > 100 | > 100 | > 100 | > 100 | > 100 | > 100 | > 100
7 | CC(C)(C)OC(=O)NC(CS(=O)(=O)O)C(=O)O (centres undefined) | > 100 | > 100 | > 100 | > 100 | > 100 | > 100 | > 100 | > 100 | > 100 | > 100 | > 100 | > 100 | > 100 | > 100 | > 100 | > 100 | > 100 | > 100 | > 100 | > 100
8 | COC(=O)N/N=C(/c1nc2ccc([N+](=O)[O-])cc2[nH]c1=O)C(O)c1ccc(OC)c(OC)c1 (centres undefined) | > 100 | > 100 | > 100 | > 100 | > 100 | > 100 | > 100 | > 100 | > 100 | > 100 | > 100 | > 100 | > 76.9 | > 74.5 | > 100 | > 100 | 39 | > 100 | > 100 | > 100
9 | COc1ccc(/C=C2\CCC(Cc3ccccc3)(CN(C)C)C2=O)cc1 (centres undefined) | > 100 | > 72.9 | > 100 | > 100 | > 100 | 66.2 | > 100 | > 100 | > 100 | > 100 | 78 | 72.3 | > 74.8 | 62.9 | > 100 | > 100 | 54 | > 100 | > 71.9 | > 100
10 | CC1OC(OCC2OC(Oc3ccc(C4CC(=O)c5c(O)cc(O)cc5O4)cc3O)C(O)C(O)C2O)C(O)C(O)C1O (centres undefined) | > 100 | > 100 | > 100 | > 100 | > 100 | > 100 | > 100 | > 100 | > 100 | > 100 | > 100 | > 100 | > 100 | > 100 | > 100 | > 100 | > 100 | > 100 | > 100 | > 100
11 | c1ccc2c3nnc(c2c1)SCCCSc1nnc(c2ccccc12)SCCCS3 | > 100 | 94 | 28.3 | 50.3 | > 100 | > 100 | > 100 | > 100 | > 100 | > 100 | > 100 | > 100 | > 100 | > 100 | > 100 | > 100 | > 100 | > 100 | > 100 | > 100
12 | CC(C)NC(=O)OCc1c(COC(=O)NC(C)C)c(-c2cc[n+](COC(=O)C(C)C)cc2)n2c1CCC2 | > 100 | 62.5 | > 100 | > 100 | > 100 | > 100 | > 100 | > 100 | > 100 | > 100 | > 100 | > 100 | > 100 | > 100 | > 82.7 | > 100 | > 63.3 | > 100 | > 100 | > 100
13 | N#CCC1(c2ccc(Cl)cc2)NC(=O)c2ccccc21 (centres undefined) | > 100 | > 100 | > 100 | > 100 | > 100 | > 100 | > 100 | > 100 | > 100 | > 100 | > 100 | > 100 | > 100 | > 100 | > 100 | > 100 | > 100 | > 100 | > 100 | > 100

— PubChem BioAssay (NCI)
